# In patent US6737383B1, “Herbicidal oxadiazolidines” (priority 1999, dated 2004):
# Legend:
# [1] = test system: morningglory; experiment: Test B pre/postemergence morningglory; format: in vivo, Ipomoea hederacea
# In short: (§1)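 Test chemicals in a non-phytotoxic solvent mixture with surfactant were sprayed preemergence onto planted seeds and postemergence onto plants 2 to 18 cm tall (1- to 4-leaf stage). After twelve to sixteen days in a greenhouse, injury was visually rated against untreated controls from 0 (no effect) to 10 (complete control).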
# [2] = test system: wild oat; experiment: Test B pre/postemergence wild oat; format: in vivo, Avena fatua
# In short: as §1
# [3] = test system: bedstraw; experiment: Test B pre/postemergence bedstraw; format: in vivo, Galium aparine
# In short: as §1
# [4] = test system: cocklebur; experiment: Test B pre/postemergence cocklebur; format: in vivo, Xanthium strumarium
# In short: as §1
# [5] = test system: rape; experiment: Test B pre/postemergence rape; format: in vivo, Brassica napus
# In short: as §1
# [6] = test system: pigweed; experiment: Test B pre/postemergence pigweed; format: in vivo, Amaranthus retroflexus
# In short: as §1
# [7] = test system: purple nutsedge; experiment: Test B pre/postemergence purple nutsedge; format: in vivo, Cyperus rotundus
# In short: as §1
# [8] = test system: surinam grass; experiment: Test B pre/postemergence surinam grass; format: in vivo, Brachiaria decumbens
# In short: as §1
# [9] = test system: sugar beet; experiment: Test B pre/postemergence sugar beet; format: in vivo, Beta vulgaris
# In short: as §1
# [10] = test system: soybean; experiment: Test B pre/postemergence soybean; format: in vivo, Glycine max
# In short: as §1
# [11] = test system: corn; experiment: Test B pre/postemergence corn; format: in vivo, Zea mays
# In short: as §1
# [12] = test system: crabgrass; experiment: Test B pre/postemergence crabgrass; format: in vivo, Digitaria sanguinalis
# In short: as §1
# [13] = test system: velvetleaf; experiment: Test B pre/postemergence velvetleaf; format: in vivo, Abutilon theophrasti
# In short: as §1
# [14] = test system: blackgrass; experiment: Test B pre/postemergence blackgrass; format: in vivo, Alopecurus myosuroides
# In short: as §1
# [15] = test system: wheat; experiment: Test B pre/postemergence wheat; format: in vivo, Triticum aestivum
# In short: as §1
# [16] = test system: giant foxtail; experiment: Test B pre/postemergence giant foxtail; format: in vivo, Setaria faberii
# In short: as §1
# [17] = Postemergence, Rate 62 g/ha, scale 0 to 10, 0 is no effect, 10 is complete control
# [18] = Postemergence, Rate 125 g/ha, scale of 0 to 10 where 0 is no effect and 10 is complete control
# [19] = Preemergence, Rate 62 g/ha, scale of 0 to 10 where 0 is no effect and 10 is complete control
# [20] = Preemergence, Rate 125 g/ha, scale of 0 to 10 where 0 is no effect and 10 is complete control
# [21] = Preemergence, Rate 250 g/ha, scale 0 (no effect) to 10 (complete control)
# [22] = Rate 250 g/ha, Postemergence, scale 0 to 10, 0 is no effect, 10 is complete control
# [23] = Rate 500 g/ha, Postemergence, scale 0 to 10, 0 is no effect, 10 is complete control
# [24] = Preemergence, Rate 500 g/ha, scale of 0 to 10 where 0 is no effect and 10 is complete control
smiles,measurement,setting,value
CC(C)N(C(=O)n1oc(=O)n(CCCCCl)c1=O)c1ccc(F)cc1 [Compound 712],"Plant response rating, Morningglory",[1]; [17],3
same,Morningglory plant response rating,[1]; [18],4
same,Morningglory plant response rating,[1]; [19],0
same,"Plant response rating, Morningglory",[1]; [20],0
same,Morningglory plant response rating,[1]; [21],0
same,Morningglory plant response rating,[1]; [22],10
same,Morningglory plant response rating,[1]; [23],10
same,"Plant response rating, Wild oats",[2]; [17],0
same,Wild oats plant response rating,[2]; [18],0
same,Wild oats plant response rating,[2]; [19],0
same,"Plant response rating, Wild oats",[2]; [20],3
same,Wild oats plant response rating,[2]; [21],3
same,Wild oats plant response rating,[2]; [22],0
same,Wild oats plant response rating,[2]; [23],3
same,Bedstraw plant response rating,[3]; [19],0
same,"Plant response rating, Bedstraw",[3]; [20],0
same,Bedstraw plant response rating,[3]; [21],2
same,"Plant response rating, Bedstraw",[3]; [24],5
same,Bedstraw plant response rating,[3]; [23],8
same,"Plant response rating, Cocklebur",[4]; [17],0
same,Cocklebur plant response rating,[4]; [18],0
same,Cocklebur plant response rating,[4]; [19],0
same,"Plant response rating, Cocklebur",[4]; [20],0
same,Cocklebur plant response rating,[4]; [21],0
same,"Plant response rating, Cocklebur",[4]; [24],0
same,Cocklebur plant response rating,[4]; [22],3
same,Cocklebur plant response rating,[4]; [23],3
same,"Plant response rating, Rape",[5]; [17],2
same,Rape plant response rating,[5]; [18],3
same,Rape plant response rating,[5]; [19],0
same,"Plant response rating, Rape",[5]; [20],2
same,Rape plant response rating,[5]; [21],7
same,Rape plant response rating,[5]; [22],4
same,Rape plant response rating,[5]; [23],4
same,"Plant response rating, Redroot pigweed",[6]; [17],3
same,Redroot pigweed plant response rating,[6]; [19],6
same,"Plant response rating, Redroot pigweed",[6]; [20],8
same,Redroot pigweed plant response rating,[6]; [21],8
same,Redroot pigweed plant response rating,[6]; [22],6
same,Redroot pigweed plant response rating,[6]; [23],8
same,"Plant response rating, Nutsedge",[7]; [17],0
same,Nutsedge plant response rating,[7]; [18],0
same,Nutsedge plant response rating,[7]; [19],0
same,"Plant response rating, Nutsedge",[7]; [20],0
same,Nutsedge plant response rating,[7]; [21],0
same,Nutsedge plant response rating,[7]; [22],0
same,Nutsedge plant response rating,[7]; [23],0
same,"Plant response rating, B. signalgrass",[8]; [17],0
same,B. signalgrass plant response rating,[8]; [18],0
same,B. signalgrass plant response rating,[8]; [19],3
same,"Plant response rating, B. signalgrass",[8]; [20],5
same,B. signalgrass plant response rating,[8]; [21],8
same,"Plant response rating, B. signalgrass",[8]; [24],8
same,B. signalgrass plant response rating,[8]; [22],4
same,B. signalgrass plant response rating,[8]; [23],8
same,"Plant response rating, Sugarbeets",[9]; [17],1
same,Sugarbeets plant response rating,[9]; [18],3
same,Sugarbeets plant response rating,[9]; [19],0
same,"Plant response rating, Sugarbeets",[9]; [20],4
same,Sugarbeets plant response rating,[9]; [21],7
same,Sugarbeets plant response rating,[9]; [23],6
same,"Plant response rating, Soybean",[10]; [17],2
same,Soybean plant response rating,[10]; [18],5
same,Soybean plant response rating,[10]; [19],0
same,"Plant response rating, Soybean",[10]; [20],0
same,Soybean plant response rating,[10]; [21],0
same,Soybean plant response rating,[10]; [22],5
same,Soybean plant response rating,[10]; [23],5
same,"Plant response rating, Corn",[11]; [17],0
same,Corn plant response rating,[11]; [18],0
same,Corn plant response rating,[11]; [19],0
same,"Plant response rating, Corn",[11]; [20],0
same,Corn plant response rating,[11]; [21],0
same,Corn plant response rating,[11]; [22],0
same,Corn plant response rating,[11]; [23],0
same,"Plant response rating, Crabgrass",[12]; [17],1
same,Crabgrass plant response rating,[12]; [18],4
same,Crabgrass plant response rating,[12]; [19],8
same,"Plant response rating, Crabgrass",[12]; [20],9
same,Crabgrass plant response rating,[12]; [21],10
same,Crabgrass plant response rating,[12]; [22],9
same,Crabgrass plant response rating,[12]; [23],9
same,"Plant response rating, Velvetleaf",[13]; [17],0
same,Velvetleaf plant response rating,[13]; [18],5
same,Velvetleaf plant response rating,[13]; [19],0
same,"Plant response rating, Velvetleaf",[13]; [20],3
same,Velvetleaf plant response rating,[13]; [21],3
same,Velvetleaf plant response rating,[13]; [22],6
same,Velvetleaf plant response rating,[13]; [23],6
same,"Plant response rating, Blackgrass",[14]; [17],0
same,Blackgrass plant response rating,[14]; [18],0
same,Blackgrass plant response rating,[14]; [19],3
same,"Plant response rating, Blackgrass",[14]; [20],6
same,Blackgrass plant response rating,[14]; [21],8
same,"Plant response rating, Blackgrass",[14]; [24],9
same,Blackgrass plant response rating,[14]; [22],5
same,Blackgrass plant response rating,[14]; [23],6
same,"Plant response rating, Wheat",[15]; [17],0
same,Wheat plant response rating,[15]; [18],0
same,Wheat plant response rating,[15]; [19],0
same,"Plant response rating, Wheat",[15]; [20],0
same,Wheat plant response rating,[15]; [21],0
same,Wheat plant response rating,[15]; [22],0
same,Wheat plant response rating,[15]; [23],5
same,"Plant response rating, Giant foxtail",[16]; [17],3
same,Giant foxtail plant response rating,[16]; [18],8
same,Giant foxtail plant response rating,[16]; [19],10
same,"Plant response rating, Giant foxtail",[16]; [20],10
same,Giant foxtail plant response rating,[16]; [21],10
same,Giant foxtail plant response rating,[16]; [22],8
same,Giant foxtail plant response rating,[16]; [23],9
